# Measured values reported in patent US10617734B2, “STAT3 and ERK signal pathway inhibitor comprising mogrosides and analogs thereof” (BEIJING UNIVERSITY OF AGRICULTURE, priority 2014, dated 2020).
# What was measured:
# [1] = tested on: phosphorylated ERK1/2 (P-ERK1/2); experiment: Western Blotting of phosphorylated ERK1/2 in U937 cells; assay type: cell-based; conditions: 10 μmol/L, 24 hours
# Method: (§1) The inhibition of the STAT3 and ERK signal pathways achieved by Mogroside I E1, Mogroside II A2 and mogrol was detected by Western Blotting, specifically:
# (§2) Group 1: histiocytic lymphoma U937 cells (1×10^6 cells/well) were inoculated into a 6-well culture plate for staying overnight, and 0 and 10 μmol/L of Mogroside I E1, Mogroside II A2 and mogrol were added respectively, and the culture was continued for 24 hours;
# (§3) After the termination of the cell culture, the culture solution was removed, and the residue was washed with PBS (0.01 mol/L, pH 7.4), and then a cell lysis solution containing protease inhibitors was added at an amount of 50 μl/well, and the mixture was placed in an ice bath for lysis at 4° C. for 30 min and then centrifuged at 14000 r/min for 10 min, and then total proteins were obtained from the supernatant;
# (§4) The protein concentrations were measured with bovine serum albumin (BSA) as the standard. 50 μg of the total proteins was separated by polyacrylamide gel electrophoresis with 12% […], electrophoretically transferred to a PVDF membrane (polyvinylidene fluoride membrane), and blocked for 1 h by 5% of skim milk (containing 0.1% of Tween 20), and then antibodies p-STAT3 (Tyr705) and p-Erk1/2 as well as β-actin were added, and the primary antibody was incubated at 4° C. overnight (β-actin was used as reference in loading amount); the membrane was washed for 3 times with TBS-T, 5 min each time; secondary antibody marked by horseradish peroxidase (HRP) was added for incubation at room temperature for 1 h, the membrane was washed for 3 times with a wash solution (TBS-T), 10 min each time, and then ECL was added for incubation in dark for 5 min, and subsequently, a fluorescence imaging analyzer was used for image development and scanning analysis, and the results of Western Blotting detection are shown in FIGS. 4 to 6.
# [2] = tested on: phosphorylated ERK1/2 (P-ERK1/2); experiment: Western Blotting of phosphorylated ERK1/2 in A875 cells; assay type: cell-based, human; conditions: melanoma A875 cells, 10 μmol/L, 24 hours
# Method: as §1
# (§5) Group 2: human melanoma A875 cells (1×10^6 cells/well) were inoculated into a 6-well culture plate for staying overnight, and 0 and 10 μmol/L of Mogroside I E1, Mogroside II A2 and mogrol were added respectively, and the culture was continued for 24 hours;
# as §3, §4
# [3] = tested on: phosphorylated STAT3 (P-STAT3, Tyr705); experiment: Western Blotting of phosphorylated STAT3 in A875 cells; assay type: cell-based, human; conditions: melanoma A875 cells, 10 μmol/L, 24 hours
# Method: as §1, §5, §3, §4
# [4] = tested on: phosphorylated STAT3 (P-STAT3, Tyr705); experiment: Western Blotting of phosphorylated STAT3 in U937 cells; assay type: cell-based; conditions: 10 μmol/L, 24 hours
# Method: as §1, §2, §3, §4
# [5] = tested on: phosphorylated STAT3 (P-STAT3, Tyr705); experiment: Western Blotting of phosphorylated STAT3 in K562 cells; assay type: cell-based, human; conditions: leukemia cells K562, 10 μmol/L, 24 hours
# Method: as §1
# (§6) Group 3: leukemia cells K562 (1×10^6 cells/well) were inoculated into a 6-well culture plate for staying overnight, and 0 and 10 μmol/L of Mogroside I E1 Mogroside II A2 and mogrol were added respectively, and the culture was continued for 24 hours;
# as §3, §4
# leukemia cells K562 = experiment: MTT colorimetric experiment, cell growth inhibition; assay type: cell-based, human; conditions: leukemia cells K562, 0.1, 1, 10, 100, 200 and 250 μmol/L, MTT after 24 h
# Method: (§7) MTT colorimetric experiments were performed after 24 h, respectively: prior to the finish of each experiment, 15 μl of MTT solution in a concentration of 5 mg/ml was added to each well, and the culture was continued in dark at 37° C. for 4 h, then 150 μl of DMSO was added to each well and oscillating in a shaker for 10 min, and then the residue was placed in a microplate reader to detect the optical density OD) at 490 nm, and the inhibition rate was calculated according to the following formula: cell growth inhibition rate (control group OD490—test group OD490)/control group OD490×100%.
# [6] = tested on: human melanoma A875 cells; experiment: as above; assay type: cell-based; conditions: melanoma A875 cells, 0.1, 1, 10, 100, 200 and 250 μmol/L, MTT after 24 h
# Method: as §7
# lymphoma U937 cells = experiment: as above; assay type: cell-based; conditions: U937 cells, 0.1, 1, 10, 100, 200 and 250 μmol/L, MTT after 24 h
# Method: as §7
# [7] = tested on: phosphorylated ERK1/2 (P-ERK1/2); experiment: Western Blotting of phosphorylated ERK1/2 in K562 cells; assay type: cell-based, human; conditions: leukemia cells K562, 10 μmol/L, 24 hours
# Method: as §1, §6, §3, §4
SMILES,expression level of phosphorylated ERK1/2 (P-ERK1/2) [1],expression level of phosphorylated ERK1/2 (P-ERK1/2) [2],expression level of phosphorylated STAT3 (P-STAT3) [3],expression level of phosphorylated STAT3 (P-STAT3) [4],expression level of phosphorylated STAT3 (P-STAT3) [5],cell growth inhibition rate (leukemia cells K562),cell growth inhibition rate [6],cell growth inhibition rate (lymphoma U937 cells),expression level of phosphorylated ERK1/2 (P-ERK1/2) [7]
C[C@H](CC[C@@H](O)C(C)(C)O)[C@H]1CC[C@@]2(C)[C@@H]3CC=C4[C@@H](CC[C@H](O[C@@H]5O[C@H](CO)[C@@H](O)[C@H](O)[C@H]5O)C4(C)C)[C@]3(C)[C@H](O)C[C@]12C [Mogroside I E1],significantly decreased,significantly decreased,significantly decreased,significantly decreased,significantly decreased,inhibitory effect on the proliferation,inhibitory effect on the proliferation,inhibitory effect on the proliferation,significantly decreased
C[C@H](CC[C@@H](O)C(C)(C)O)[C@H]1CC[C@@]2(C)[C@@H]3CC=C4[C@@H](CC[C@H](O[C@@H]5O[C@H](CO[C@@H]6O[C@H](CO)[C@@H](O)[C@H](O)[C@H]6O)[C@@H](O)[C@H](O)[C@H]5O)C4(C)C)[C@]3(C)[C@H](O)C[C@]12C [Mogroside II A2],significantly decreased,significantly decreased,significantly decreased,significantly decreased,significantly decreased,inhibitory effect on the proliferation,inhibitory effect on the proliferation,inhibitory effect on the proliferation,significantly decreased
